Laboratory results taken from US5541163A, “Renin inhibiting N-(2-amino-2-oxoethyl)butanediamide derivatives” (Bio-Mega/Boehringer Ingelheim Research Inc., priority 1993, dated 1996).

target: T1, human renin (Homo sapiens, UniProt P00797); assay: Plasma renin assay (inhibition of human renin, angiotensin I by RIA); format: biochemical; details: human plasma pool, pH 6.0, 2 h incubation at 37°
T1 construct: A human plasma pool is used as the source of both the substrate (angiotensinogen) and the enzyme (renin); from tissue; host or cells: human plasma pool
T1 sequence (P00797 67-406): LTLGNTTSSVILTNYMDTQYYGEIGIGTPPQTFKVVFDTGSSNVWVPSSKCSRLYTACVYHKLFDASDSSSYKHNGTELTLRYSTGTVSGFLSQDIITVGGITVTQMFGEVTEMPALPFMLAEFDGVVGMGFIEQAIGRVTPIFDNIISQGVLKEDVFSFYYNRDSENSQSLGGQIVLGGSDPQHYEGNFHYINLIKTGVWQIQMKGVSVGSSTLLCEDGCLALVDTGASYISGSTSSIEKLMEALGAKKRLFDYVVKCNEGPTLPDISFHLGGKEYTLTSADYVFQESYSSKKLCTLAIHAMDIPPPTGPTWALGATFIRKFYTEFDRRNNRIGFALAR
Method: The assay is performed as follows: The test compound (i.e. the inhibitor) is dissolved in dimethylsulfoxide (1 mM stock solution) and diluted with an aqueous buffer solution of 270 mM 2-(N-morpholino)ethanesulfonic acid and 1% human serum albumin (pH 5.85, also containing dimercaprol and 8-hydroxyquinoline sulfate in accordance with the instructions of the RIA kit noted below) to give an assay mixture in which the final dimethylsulfoxide content is 1% (v/v).
A human plasma pool is used as the source of both the substrate (angiotensinogen) and the enzyme (renin). The reaction is initiated by the addition of 50 μL of human plasma pool to 50 μL of various concentrations of inhibitor in the 1% dimethylsulfoxide assay buffer. The plasma renin activity is measured by the amount of angiotensin I generated at pH 6.0 following a 2 h incubation at 37°.
Quantitation of angiotensin I is performed by radioimmunoassay (RIA kit from New England Nuclear-Dupont, Mississauga, ON, Canada). The enzymatic activity of renin is expressed in ng of angiotensin I generated (/mL/2 h). The extent of inhibition of the reaction is determined from the amount of angiotensin I generated in reference to a control prepared without inhibitor. Nonlinear regression analysis is used to calculate the IC50 values, i.e. the molar concentration of the test compound required to cause a 50% inhibition of the enzyme activity.

Compound	IC50 [nM]
CCN(CC)C(=O)CN(Cc1ccccc1)C(=O)C[C@@H](CC1CC1)C(=O)N[C@@H](CC1CCCCC1)[C@@H](O)[C@@H](O)CC(C)C [Compound 11, N^4-benzyl-N^4-[2-(diethylamino)-2-oxoethyl]-N^1-[1(S)-(cyclohexylmethyl)-2(R),3(S)-dihydroxy-5-methylhexyl]-2(R)-(cyclopropylmethyl)-butanediamide]	140
CC(C)C[C@H](O)[C@H](O)[C@H](CC1CCCCC1)NC(=O)[C@@H](CC(=O)N(CC(=O)N(C)CCc1ccccn1)[C@@H](C)c1ccccc1)CC1CC1 [Compound 22, N^4-[1(S)-phenylethyl]-N^4 -{2-{methyl[2-(2-pyridinyl)ethyl]-amino}-2-oxoethyl}-N^1-(1(S)-(cyclohexylmethyl)-2(R),3(S)-dihydroxy-5-methylhexyl]-2(R)-(cyclopropylmethyl)-butanediamide]	20
CC(C)C[C@H](O)[C@H](O)[C@H](CC1CCCCC1)NC(=O)[C@@H](CC(=O)N(CC(=O)N(C)CCc1ccccn1)Cc1ccccc1)Cc1csc(N)n1 [Compound 57, N^4-benzyl-N^4 -{2-{methyl[2-(2-pyridinyl)ethyl]amino}-2-oxoethyl}-N^1-[1(S)-(cyclohexylmethyl)-2(R),3(S)-dihydroxy-5-methylhexyl]-2(R)-[(2-amino-4-thiazolyl)methyl]-butanediamide]	1
CC(C)C[C@H](O)[C@H](O)[C@H](CC1CCCCC1)NC(=O)[C@@H](CC(=O)N(CC(=O)N(C)C)CC1CCCCC1)Cc1nccs1 [Compound 37, N^4-(cyclohexylmethyl)-N^4-[2-(dimethylamino)-2-oxoethyl]-N^1-[1(S)-(cyclohexylmethyl)-2(R),3(S)-dihydroxy-5-methylhexyl]-2(S)-(2-Thiazolylmethyl)butanediamide]	1.6
CC(C)C[C@H](O)[C@H](O)[C@H](CC1CCCCC1)NC(=O)[C@@H](CC(=O)N(CC(=O)N(C)C)C[C@H](C)c1ccccc1)CC1CC1 [Compound 19, N^4-[2-(dimethylamino)-2-oxoethyl]-N^4-[2(R)-phenylpropyl]-N^1-[1(S)-(cyclohexylmethyl)-2(R),3(S)-dihydroxy-5-methylhexyl]-2(R)-(cyclopropylmethyl)butanediamide]	69
CC(C)C[C@H](O)[C@H](O)[C@H](CC1CCCCC1)NC(=O)[C@@H](CC(=O)N(CC(=O)N(C)CCc1ccccn1)Cc1cccs1)Cc1csc(N)n1 [Compound 72, N^4 -{2-{methyl[2-(2-pyridinyl)ethyl]-amino}-2-oxoethyl}-N^4-(2-thienylmethyl)-N^1-[1(S)-(cyclohexylmethyl)-2(R),3(S)-dihydroxy-5-methylhexyl]-2(R)-[(2-amino-4-thiazolyl)methyl]-butanediamide]	2
CC(C)C[C@H](O)[C@H](O)[C@H](CC1CCCCC1)NC(=O)[C@@H](CC(=O)N(CC(=O)N(C)C(C)(C)C)Cc1ccccc1)CC1CC1 [Compound 5, N^4-benzyl-N^4 -{2-[methyl(1,1-dimethylethyl)amino]-2-oxoethyl}-N^1-[1(S)-(cyclohexylmethyl)-2(R),3(S)-dihydroxy-5-methylhexyl]-2(R)-(cyclopropylmethyl)butanediamide]	290
CC(C)C[C@H](O)[C@H](O)[C@H](CC1CCCCC1)NC(=O)[C@@H](CC(=O)N(CC(=O)N(C)C)CC1CCCCC1)Cc1cscn1 [Compound 36, N^4-(cyclohexylmethyl)-N^4-[2-(dimethylamino)-2-oxoethyl]-N^1-[1(S)-(cyclohexylmethyl)-2(R),3(S)-dihydroxy-5-methylhexyl]-2(R)-(4-thiazolylmethyl)butanediamide]	1.5

The remaining molecules from weak to strong by IC50, led by results:

IC50 [nM]	Compound
66	CC(C)C[C@H](O)[C@H](O)[C@H](CC1CCCCC1)NC(=O)[C@@H](CC(=O)N(CC(=O)N(C)C)Cc1cccc2ccccc12)CC1CC1 [Compound 9, N^4-[2-(dimethylamino)-2-oxoethyl]-N^4-(1-naphthylmethyl)-N^1-[1(S)-(cyclohexylmethyl)-2(R),3(S)-dihydroxy-5-methylhexyl]-2(R)-(cyclopropylmethyl)butanediamide]
36	CC(C)CC[C@H](O)[C@H](CC1CCCCC1)NC(=O)[C@@H](CC(=O)N(CC(=O)N(C)CCc1ccccn1)CC1CCCCC1)Cc1csc(N)n1 [Compound 77, N^4-(cyclohexylmethyl)-N^4 -{2-{methyl[2-(2-pyridinyl)ethyl]-amino}-2-oxoethyl}-N^1-[1(S)-(cyclohexylmethyl)-2(S)-hydroxy-5-methylhexyl]-2(R)-[(2-amino-4-thiazolyl)methyl]butanediamide]
18.5	Cc1nc(C[C@H](CC(=O)N(CC(=O)N(C)C)CC2CCCCC2)C(=O)N[C@@H](CC2CCCCC2)[C@@H](O)[C@@H](O)CC(C)C)cs1 [Compound 47, N^4-(cyclohexylmethyl)-N^4-[2-(dimethylamino)-2-oxoethyl]-N^1-[1(S)-(cyclohexylmethyl)-2(R),3(S)-dihydroxy-5-methylhexyl]-2(R)-[(2-methyl-4-thiazolyl)methyl]butanediamide]
16	CC(C)OC(=O)[C@H](O)[C@H](CC1CCCCC1)NC(=O)[C@@H](CC(=O)N(CC(=O)N(C)C)[C@@H](C)c1ccccc1)Cc1csc(N)n1 [Compound 45, N^4-[2-(dimethylamino)-2-oxoethyl]-N^4-[1(S)-phenylethyl]-N^4-[1(S)-(cyclohexylmethyl)-2(R)-hydroxy-3-(1-methylethoxy)-3-oxopropyl]-2(R)-[(2-amino-4-thiazolyl)methyl]-butanediamide]
3	Cc1cc(C)cc(CN(CC(=O)N(C)C)C(=O)C[C@@H](Cc2csc(N)n2)C(=O)N[C@@H](CC2CCCCC2)[C@@H](O)[C@@H](O)CC(C)C)c1 [Compound 73, N^4-[2-(dimethylamino)-2-oxoethyl]-N^4-[(3,5-dimethylphenyl)methyl]-N^1-[1(S)-(cyclohexylmethyl)-2(R),3(S)-dihydroxy-5-methylhexyl]-2(R)-[(2-amino-4-thiazolyl)methyl]butanediamide]
2.5	CC(C)C[C@H](O)[C@H](O)[C@H](CC1CCCCC1)NC(=O)[C@@H](CC(=O)N(CC(=O)N(C)CCc1ccccn1)Cc1ccccc1)Cc1cscn1 [Compound 53, N^4-benzyl-N^4 -{2-{methyl[2-(2-pyridinyl)ethyl]amino}-2-oxoethyl}-N^1-[1(S)-(cyclohexylmethyl)-2(R),3(S)-dihydroxy-5-methylhexyl]-2(R)-(4-thiazolylmethyl)butanediamide]
2.2	CC(C)C[C@H](O)[C@H](O)[C@H](CC1CCCCC1)NC(=O)[C@@H](CC(=O)N(CC(=O)N(C)CCc1ccccn1)CC1CCCCC1)Cc1csc(N)n1 [Compound 50, N^4-(cyclohexylmethyl)-N^4 -{2-{methyl-[2-(2-pyridinyl)ethyl]-amino}-2-oxoethyl}-N^1-[1(S)-(cyclohexylmethyl)-2(R),3(S)-dihydroxy-5-methylhexyl]-2(R)-[(2-amino-4-thiazolyl)methyl]butanediamide]
0.5	CC(C)C[C@H](O)[C@H](O)[C@H](CC1CCCCC1)NC(=O)[C@@H](CC(=O)N(CC(=O)N(C)CCN1CCOCC1)CC1CCCCC1)Cc1csc(N)n1 [Compound 90, N^4-(cyclohexylmethyl)-N^4 -{2-{methyl-(2-morpholinoethyl)amino]-2-oxoethyl}-N^1-[(S)-(cyclohexylmethyl)-2(R),3(S)-dihydroxy-5-methylhexyl]-2(R)-[(2-amino-4-thiazolyl)methyl]-butanediamide]
